Assay results reported in patent publication US10561736B1, “Apoptosis inhibitor formulations for prevention of hearing loss” (Spiral Therapeutics, Inc., priority 2019, dated 2020).

Assays:
rats = experiment: GLP auditory safety study after single IT administration; type: in vivo, rat
Protocol: Gross observations were recorded, and selected organs were weighed.

HEI-OC1 cells = experiment: release of mitochondrial Cytc in HEI-OC1 cells with CisPt (flow cytometry); type: cell-based; conditions: HEI-OC1 cells, CisPt alone vs pre-incubated with LPT99, flow cytometry
Protocol: Flow cytometry was also used to characterize the effect of LPT99 in the release of mitochondrial Cytc in HEI-OC1 cells in vitro with CisPt prevention.
The effect of LPT99 on proliferation of non-apoptotic cells was studied. A549 cells were cultured in the presence of LPT99 for up to 6 days; the cell number was monitored by flow cytometry, and doubling time was calculated.

Compound	weight-normalized heart weights (rats; male rats, 400 mg/mL gentamicin, Day 14, vs saline controls)	otoscopic examination of the tympanic membranes (erythema, edema, wounds) (rats; rat, single IT, Days 1, 7, 14, vs control)	mortalities, clinical abnormalities, body weight, food intake, clinical pathologies (rats; rat, single bilateral IT 30 μL per ear, 14-day study)	release of mitochondrial Cytc (HEI-OC1 cells)
gentamicin [reference compound]	statistically significant (p≤0.05) increased weight-normalized heart weights	increases in otoscopic scores	no LPT99- or gentamicin-related mortalities	
N.N.[Cl][Pt][Cl] [CisPt, cisplatin, reference compound]				28%±6.6%
